Data taken from US20230066011A1, “PYRROLOPYRIMIDINE DERIVATIVE, AND PHARMACEUTICAL COMPOSITION FOR PREVENTING OR TREATING PROTEIN KINASE-RELATED DISEASE COMPRISING SAME AS ACTIVE INGREDIENT” (VORONOI CO., LTD., priority 2019, published 2023).

How the values were obtained:
human GST-DYRK1A = target: T1, human GST-DYRK1A (Homo sapiens, UniProt Q13627); test: GST-DYRK1A enzyme inhibition, ADP-Glo kinase assay; assay type: biochemical; conditions: ATP 10 μM, GST-DYRK1A full length, read-out: DYRK1 IC50
T1 construct: purified human GST-DYRK1A (full length, Thermo Scientifics) enzyme; purchased Thermo Scientifics
Summary of the method: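 Full-length enzyme (10 ng) was incubated with 10 μM ATP and a specific substrate for 1 h at 25 °C in 40 mM Tris-HCl pH 7.4, 20 mM MgCl2, 0.5 mg/mL BSA, 50 μM DTT. Luminescence was read against a solvent control, and IC50 values were derived from 3 data sets.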

LRRK2 = LRRK2 (Homo sapiens, UniProt Q5S007); test: LRRK2 enzyme inhibition, ADP-Glo kinase assay; assay type: biochemical; set-up: purchased Invitrogen PR8604B; conditions: ATP 10 μM
Summary of the method: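 ADP-Glo luminescent read-out of ADP formed by purified human LRRK2 enzyme (25 ng), 10 μM ATP, 0.2 μg substrate, 25° C for 2 h, Tris-HCl pH 7.4 buffer with MgCl2, BSA, DTT. Inhibition versus untreated solvent control over twelve final concentrations (50 μM downward) gives IC50.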

human GST-CLK1 = target: T2, human GST-CLK1 (Homo sapiens, UniProt P49759); test: GST-CLK1 enzyme inhibition, ADP-Glo kinase assay; assay type: biochemical; conditions: ATP 10 μM, GST-CLK1 129-end
T2 construct: purified human GST-CLK1 (129-end, SignalChem) enzyme; purchased SignalChem
Summary of the method: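 ADP-Glo luminescence read-out, relative to untreated solvent control, gave IC50 (nM) from triplicate data sets. Reactions ran an hour at 25° C with 3 ng GST-CLK1 (residues 129-end), 10 μM ATP and specific substrate in Tris-HCl pH 7.4 buffer with MgCl2, BSA and DTT.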

LRRK2 (G2019S) = LRRK2 (G2019S) (Homo sapiens, UniProt Q5S007, G2019S); test: LRRK2 G2019S enzyme inhibition, ADP-Glo kinase assay; assay type: biochemical; set-up: purchased SignalChem L10-12GG; conditions: ATP 25 μM
Summary of the method: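 IC50 derived from luminescent ADP-Glo readout against untreated solvent control, twelve final compound concentrations from 50 μM downward. Reaction: recombinant human LRRK2 G2019S enzyme, 25 μM ATP, substrate, pH 7.4 Tris buffer with MgCl2/BSA/DTT, 25° C. for 2 hours.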

MDA-MB-468 cell line = test: Inhibition of proliferation of MDA-MB-468 cancer cells (Cell Titer-Glo); assay type: cell-based; conditions: Homo sapiens, MDA-MB-468, 72 hours
Method: (§1) To evaluate an inhibitory effect on the proliferation of cancer cells, each of an MDA-MB-231 cell line (Korean Cell Line Bank #30026) and an MDA-MB-468 cell line as triple-negative breast cancer cell lines, and SHP-77 (ATCC #CRL-2195) as a small-cell lung cancer cell line was cultured in DMEM (HyClone #SH30243) or an RPMI medium (HyClone #SH3027.01) to analyze a cell growth rate. More specifically, a cell line was plated on a 96-well flat bottom plate (Corning #3903) at a density of 2,000 cells/100 μL per well, and then treated with 11 concentrations of the Example compound, a solution of which was diluted 3-fold so that a final concentration of the compound was 10.000000, 3.333333, 1.111111, 0.370370, 0.123457, 0.041152, 0.013717, 0.004572, 0.001524, 0.000508, and 0.000169 μM. After 72 hours, each of the culture media was treated with 100 μL of Cell Titer-Glo (Promega G7573), and then cultured at room temperature for 10 minutes. Then, a degree of luminescence was measured using a microplate reader. A GI50 value was calculated from the measured degree of luminescence using Prism (Version 8.2 GraphPad) software.

MDA-MB-231 cell line = test: Inhibition of proliferation of MDA-MB-231 cancer cells (Cell Titer-Glo); assay type: cell-based; conditions: Homo sapiens, 72 hours
Method: as §1

LRRK2, sequence (Q5S007 970-2527 limits assumed): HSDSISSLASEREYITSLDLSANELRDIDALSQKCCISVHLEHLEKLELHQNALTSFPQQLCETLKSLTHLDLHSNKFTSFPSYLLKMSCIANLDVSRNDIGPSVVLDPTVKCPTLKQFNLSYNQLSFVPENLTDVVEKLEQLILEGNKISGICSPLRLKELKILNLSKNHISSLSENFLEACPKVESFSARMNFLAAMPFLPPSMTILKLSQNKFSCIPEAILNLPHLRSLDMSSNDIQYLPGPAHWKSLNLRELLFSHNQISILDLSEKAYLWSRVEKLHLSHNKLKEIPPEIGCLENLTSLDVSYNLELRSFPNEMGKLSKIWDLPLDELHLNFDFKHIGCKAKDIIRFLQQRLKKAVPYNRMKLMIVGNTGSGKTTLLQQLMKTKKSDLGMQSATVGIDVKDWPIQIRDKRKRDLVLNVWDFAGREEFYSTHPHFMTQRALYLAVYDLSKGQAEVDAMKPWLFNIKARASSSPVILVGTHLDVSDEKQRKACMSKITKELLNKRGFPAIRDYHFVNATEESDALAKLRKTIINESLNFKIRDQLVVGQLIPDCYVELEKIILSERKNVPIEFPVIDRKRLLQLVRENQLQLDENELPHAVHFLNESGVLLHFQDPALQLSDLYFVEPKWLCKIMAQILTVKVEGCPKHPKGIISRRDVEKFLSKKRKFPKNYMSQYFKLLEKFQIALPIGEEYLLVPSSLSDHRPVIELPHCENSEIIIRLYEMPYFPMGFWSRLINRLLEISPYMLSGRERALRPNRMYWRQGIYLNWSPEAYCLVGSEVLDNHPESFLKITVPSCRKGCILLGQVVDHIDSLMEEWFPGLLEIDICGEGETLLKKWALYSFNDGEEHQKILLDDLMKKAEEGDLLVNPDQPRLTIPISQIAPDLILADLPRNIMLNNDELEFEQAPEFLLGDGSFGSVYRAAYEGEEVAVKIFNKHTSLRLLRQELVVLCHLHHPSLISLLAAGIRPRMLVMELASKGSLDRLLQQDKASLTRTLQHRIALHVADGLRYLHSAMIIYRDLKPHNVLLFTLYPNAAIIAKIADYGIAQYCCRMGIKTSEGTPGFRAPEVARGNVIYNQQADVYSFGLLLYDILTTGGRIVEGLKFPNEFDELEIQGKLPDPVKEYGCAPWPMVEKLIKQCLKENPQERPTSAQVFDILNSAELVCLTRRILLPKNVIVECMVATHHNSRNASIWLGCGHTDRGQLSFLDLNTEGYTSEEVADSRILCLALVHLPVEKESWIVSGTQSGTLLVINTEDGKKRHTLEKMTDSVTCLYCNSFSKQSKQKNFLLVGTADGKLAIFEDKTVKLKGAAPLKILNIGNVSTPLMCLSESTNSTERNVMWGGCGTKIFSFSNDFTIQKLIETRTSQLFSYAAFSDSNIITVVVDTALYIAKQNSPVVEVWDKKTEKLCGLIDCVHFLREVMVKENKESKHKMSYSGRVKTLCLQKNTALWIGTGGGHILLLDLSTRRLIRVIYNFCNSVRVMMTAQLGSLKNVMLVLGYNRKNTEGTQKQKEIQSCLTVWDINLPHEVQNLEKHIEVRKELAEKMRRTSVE
LRRK2 (G2019S), sequence (Q5S007 970-2527 G2019S limits assumed): as the sequence (Q5S007 970-2527 limits assumed) above, with G1050S counted along it
T2 sequence (P49759 129-484 limits assumed): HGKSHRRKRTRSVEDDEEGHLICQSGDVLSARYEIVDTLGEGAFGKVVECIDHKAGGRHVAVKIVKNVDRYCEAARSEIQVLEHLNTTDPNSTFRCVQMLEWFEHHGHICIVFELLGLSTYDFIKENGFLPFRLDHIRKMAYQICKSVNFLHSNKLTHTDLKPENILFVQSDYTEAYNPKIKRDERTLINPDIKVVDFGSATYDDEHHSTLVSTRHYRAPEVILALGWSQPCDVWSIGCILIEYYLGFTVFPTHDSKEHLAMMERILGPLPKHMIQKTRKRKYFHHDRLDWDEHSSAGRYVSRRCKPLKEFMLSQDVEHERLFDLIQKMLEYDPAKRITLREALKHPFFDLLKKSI

| SMILES | IC50 (human GST-DYRK1A) [nM] | IC50 (LRRK2) [nM] | IC50 (human GST-CLK1) [nM] | IC50 (LRRK2 (G2019S)) [nM] | GI50 (MDA-MB-468 cell line) [nM] | GI50 (MDA-MB-231 cell line) [nM] |
| --- | --- | --- | --- | --- | --- | --- |
| CCCNc1nc(Nc2ccc(S(=O)(=O)N3CCOCC3)cc2OC)nc2[nH]cc(C(F)(F)F)c12 [Example 372, N^2-(2-methoxy-4-(morpholino-sulfonyl)phenyl)-N^4-propyl-5-(trifluoromethyl)-7H-pyrrolo[2,3-d]pyrimidine-2,4-diamine] | 301 to 1000 | 101 to 300 | 301 to 1000 | < 100 | 301 to 1000 | 301 to 1000 |
| COc1cc(S(=O)(=O)N2CCOCC2)ccc1Nc1nc(NC2CC2)c2c(C(F)(F)F)c[nH]c2n1 [Example 374, N^4-cyclopropyl-N^2-(2-methoxy-4-(morpholino-sulfonyl)phenyl)-5-(trifluoromethyl)-7H-pyrrolo[2,3-d]pyrimidine-2,4-diamine] | 301 to 1000 | < 100 | 301 to 1000 | < 100 | 301 to 1000 | 301 to 1000 |
| COc1cc(S(=O)(=O)N2CCOCC2)ccc1Nc1nc(N[C@@H]2CCOC2)c2c(C(F)(F)F)c[nH]c2n1 [Example 382, (R)-N^2-(2-methoxy-4-(morpholino-sulfonyl)phenyl)-N^4-(tetrahydrofuran-3-yl)-5-(trifluoromethyl)-7H-pyrrolo[2,3-d]pyrimidine-2,4-diamine] | 301 to 1000 | – | 301 to 1000 | < 100 | 301 to 1000 | 101 to 300 |
| N#Cc1c[nH]c2nc(Nc3ccc(C(=O)N4CCOCC4)c4c3OCCO4)nc(NC3CCCC3)c12 [Example 126, 4-(cyclopentylamino)-2-((8-(morpholine-4-carbonyl)-2,3-dihydrobenzo[b][1,4]dioxin-5-yl)amino)-7H-pyrrolo[2,3-d]pyrimidine-5-carbonitrile] | 301 to 1000 | < 100 | 301 to 1000 | – | 51 to 100 | 101 to 300 |
| CCNc1nc(Nc2ccc(S(=O)(=O)N3CCOCC3)c3c2OCCO3)nc2[nH]cc(C(F)(F)F)c12 [Example 432, N^4-ethyl-N^2-(8-(morpholino-sulfonyl)-2,3-dihydro-benzo[b][1,4]dioxin-5-yl)-5-(trifluoromethyl)-7H-pyrrolo[2,3-d]pyrimidine-2,4-diamine] | 301 to 1000 | < 100 | 301 to 1000 | 101 to 300 | 301 to 1000 | 301 to 1000 |
| COCCNc1nc(Nc2ccc(S(=O)(=O)N3CCOCC3)cc2OC)nc2[nH]cc(C(F)(F)F)c12 [Example 373, N^2-(2-methoxy-4-(morpholino-sulfonyl)phenyl)-N^4-(2-methoxyethyl)-5-(trifluoromethyl)-7H-pyrrolo[2,3-d]pyrimidine-2,4-diamine] | 301 to 1000 | < 100 | 301 to 1000 | < 100 | 301 to 1000 | 301 to 1000 |
| COc1cc(S(=O)(=O)N2CCC(N3CCOCC3)CC2)ccc1Nc1nc(NC(C)C)c2c(C#N)c[nH]c2n1 [Example 85, 4-(isopropylamino)-2-((2-methoxy-4-((4-morpholinopiperidin-1-yl)sulfonyl)phenyl)amino)-7H-pyrrolo[2,3-d]pyrimidine-5-carbonitrile] | 301 to 1000 | – | 101 to 300 | < 100 | < 50 | < 50 |
| COc1cc(S(=O)(=O)N2CCC(N3CCOCC3)CC2)ccc1Nc1nc(NCC2CCCC2)c2c(C#N)c[nH]c2n1 [Example 95, 4-((cyclopentylmethyl)amino)-2-((2-methoxy-4-((4-morpholinopiperidin-1-yl)sulfonyl)phenyl)amino)-7H-pyrrolo[2,3-d]pyrimidine-5-carbonitrile] | 301 to 1000 | < 100 | 301 to 1000 | – | 101 to 300 | 101 to 300 |
